Laboratory results reported in paper PMC6218639, “The calcium sensitizer drug MCI-154 binds the structural C-terminal domain of cardiac troponin C” (Biochemistry and Biophysics Reports, 2018).

Target: T1, cardiac troponin C (cTnC) (Homo sapiens, UniProt P63316, C35S/C84S)
T1 construct: gene TNNC1; cTnC residues 1–161
Experiment: 2D 1H, […]-HSQC NMR titration (KD […]), confirmed by ITC
Assay type: binding

O=C1CCC(c2ccc(Nc3ccncc3)cc2)=NN1 [MCI-154, 6-(4-(pyridin-4-ylamino)phenyl)-4,5-dihydropyridazin-3(2H)-one]
Kd: 500 ± 100 µM
